The results in this text go back to US20260033491A1, “FUNGAL SPORE FORMULATIONS INCLUDING CARRIER FLUIDS” (priority 2018, published 2026).

Format in all cases: cell-based
In data set [1] the test system is I. fumosorosea spores. Put plainly: Spore viability (germination rate) of Isaria fumosorosea spores dispersed in fluid and stored at 30° C. The following applies: I. fumosorosea spores in fluid; for spore viability [%] after 1 m (27 d) / spore viability [%] after 7 m (210 d): storage at 30° C. The protocol: (§1) 1.5 g of I. fumosorosea pure spore powder were transferred into a formulation vessel (IKA Type DT-20 mixing vessel with dispersion tool for Ultra Turrax) using a sterile spoon. 13.5 mL of fluid were added into the respective formulation vessel and dispersed using ultra turrax tube drive control for 1 min at 3000 rpm; change direction after 30 sec. After this 2.8 mL were transferred in four sample bottles (Wheaton Serum vial, Type I) leaving little headspace and closed tight using crimpneck caps (Macherey—Nagel type N 13) Afterwards all sample bottles were transferred to an incubator set at 30° C. and stored for a given time.
In regular intervals a sample was retrieved from the storage location and analyzed for spore viability. Therefore the original samples were thoroughly homogenized. Aliquots of 0.25 g or 250 μL of each sample were transferred into 50 mL falcon tubes. The tubes were filled up to 25 g using a sterile aqueous solution containing 2% Tween 80 and homogenized by vortexing to achieve the first dilution step (1:100 dilution). This dilution was used for further dilution and spotting on agar.
Not all samples mixed well or mixed at all in 2% Tween 80. For these samples, an alternative dispersion/dilution method was applied where the oil phase is stripped from the spores first: 0.25 g or 250 μL of sample were weighted into a 2 mL Eppendorf tube, and 0.5 mL of 2% Tween 80 was added, and the mixture was transferred into an Eppendorf centrifuge where it was centrifuged for 1 min at 10.000 rpm. The supernatant (=upper oily phase) was discarded by using a pipette. Afterwards 250 μL of Breakthru S 240 were added and the spores were well dispersed. 250 μL or 0.25 g of each sample were transferred into a sterile 50 mL Falcon tube. The tubes were filled up to 25 g using a sterile aqueous solution containing 2% Tween 80 and homogenized by vortexing to achieve the first dilution step (1:100 dilution). This dilution was used for further dilution and spotting on agar.
(§2) For evaluation of spore germination rate prepare a 1:15000 dilution based on the 1:100 dilution achieved by multiple automated dilution (pipetting robot, 96 well plate). Afterwards 12×12 cm agar plates are taken and spotted with 10 times 5 μL of each sample using an automated 12-Channel pipet. Wait until liquid is soaked up by agar and transfer agar plate to an incubator and incubate at 23° C. for 16 hours. Open the plate and place it under the microscope. Randomly chose one area per spot and record the number of germinated and non-germinated spores that are within the designated field. At least 200 spores per sample need to be evaluated. If needed count more than one field per spot.

For data set [2], the system named is Penicillium bilaii spores. Put plainly: Spore viability (germination rate) of Penicillium bilaii spores dispersed in fluid and stored at 30° C. The following applies: Penicillium bilaii spores in fluid; for spore viability [%] 6 w@30° C. (41-43 d) / spore viability [%] 3 m@30° C. (83-85 d): storage at 30° C. The protocol: as §1, with “Penicillium bilaii” for “I. fumosorosea”
(§3) In regular intervals a sample was retrieved from the storage location and analyzed for spore viability. Therefore the original samples were thoroughly homogenized. Aliquots of 0.25 g or 250 μL of each sample are transferred into 50 mL falcon tubes. The tubes were filled up to 25 g using a sterile aqueous solution containing 2% Tween 80 and homogenized by vortexing to achieve the first dilution step (1:100 dilution). This dilution was used for further dilution and spotting on agar.
(§4) Not all samples mixed well or mixed at all in 2% Tween 80. For these samples, an alternative dispersion/dilution method was applied where the oil phase is stripped from the spores first: 0.25 g or 250 μL of sample are weighted into a 2 mL Eppendorf tube, and 0.5 mL of 2% Tween 80 is added, and the mixture is transferred into an Eppendorf centrifuge where it is centrifuged for 1 min at 10.000 rpm. The supernatant (=upper oily phase) is discarded by using a pipette. Afterwards 250 μL of Breakthru S 240 are added and the spores are well dispersed. 250 μL or 0.25 g of each sample are transferred into a sterile 50 mL Falcon tube. The tubes were filled up to 25 g using a sterile aqueous solution containing 2% Tween 80 and homogenized by vortexing to achieve the first dilution step (1:100 dilution). This dilution is used for further dilution and spotting on agar.
as §2, with “20°” for “23°”, “17” for “16”

In data set [3] the test system is Beauveria bassiana spores. Put plainly: Spore viability (germination rate) of Beauveria bassiana spores dispersed in fluid and stored at 30° C. The conditions noted are these: Beauveria bassiana spores in fluid; for spore viability [%] after 2 w (14 d) / spore viability [%] after 5 w (35 d): storage at 30° C. The protocol:
as §1, with “Beauveria bassiana” for “I. fumosorosea”
as §3
as §4, with “For” for “Not all samples mixed well or mixed at all in 2% Tween 80. For”, “Afterwards 250 μL of Breakthru S 240 are added and the spores are well dispersed.” left out
as §2, with “20°” for “23°”, “17” for “16”

The structures appear in SMILES notation.

Regarding `CCCCOC(=O)CCCCC(=O)OCCCC` [Adimoll DB, di-n-Butyl adipate], in data set [1], the “spore viability [%] at day 1” value is 89.5%, the “spore viability [%] after 1 m (27 d)” value was determined as 66.6% and the “spore viability [%] after 7 m (210 d)” value was found to be 60.0%. Also, in data set [2], the “spore viability [%] initial (1-2 d)” value turned out to be 97.5%, the “spore viability [%] 6 w@30° C. (41-43 d)” value was 90.8% and the “spore viability [%] 3 m@30° C. (83-85 d)” value was found to be 75.5%. In data set [3], the “spore viability [%] at day 1” value is given as 87%, the “spore viability [%] after 2 w (14 d)” value is on record as 66.1% and the “spore viability [%] after 5 w (35 d)” value was found to be 37.7%.

Take `CC(=O)OCC(COC(C)=O)OC(C)=O` [Triacetin, Glycerin triacetate]: in data set [1], the “spore viability [%] at day 1” value stood at 90%, the “spore viability [%] after 1 m (27 d)” value stood at 84.0% and the “spore viability [%] after 7 m (210 d)” value amounted to 69.1%. Further, in data set [2], the “spore viability [%] initial (1-2 d)” value amounted to 92.9%, the “spore viability [%] 6 w@30° C. (41-43 d)” value came out at 83.2% and the “spore viability [%] 3 m@30° C. (83-85 d)” value is recorded as 57.6%. Moreover, in data set [3], the “spore viability [%] at day 1” value came out at 89.3%, the “spore viability [%] after 2 w (14 d)” value came out at 58.6% and the “spore viability [%] after 5 w (35 d)” value turned out to be 31.6%.
